SMILES strings stand for the structures.

Test [1] deals with CD34+CD36−IL-3R+ cells (BFU-E cells). As to the kind of experiment: Liquid culture of sorted BFU-E cells, cell numbers counted every day. Format: cell-based, human. How it is done:
(§1) Cells from day 5 cultures were used for sorting since at this time the cultured cells contain about equal numbers of BFU-E and CFU-E forming progenitors. 50×10^6 cells were suspended in 4 mL PBS/0.5% BSA in a 50 mL tube. Cells were blocked with 4% human AB serum for 10 min and subsequently incubated with PE-conjugated mouse anti-human CD34, FITC-conjugated mouse anti-human CD36 and PE-Cy7-conjugated mouse anti-human IL3-R on ice for 30 min in the dark. Cells were washed twice with 40 mL PBS/0.5% BSA and re-suspended in 5 mL PBS/0.5% BSA and stained with the viability marker 7-AAD on ice for 10 min in the dark. Sorting was performed on a MOFLO high-speed cell sorter (Beckman-Coulter). To sort BFU-E and CFU-E cells from primary human bone marrow, we first obtained mononuclear cells by Ficoll density gradient separation. We then obtained CD45^+ cells by positive selection using CD45 magnetic beads. The CD45^+ cells were stained with PE-conjugated mouse anti-human CD34, FITC-conjugated mouse anti-human CD36, PE-Cy7-conjugated mouse anti-human IL3-R, APC-cy7-conjugated mouse anti-human CD45 and APC-conjugated mouse anti-human CD71 for 30 min in the dark. Cells were washed twice with 40 mL PBS/0.5% BSA, re-suspended in 5 mL PBS/0.5% BSA and stained with the viability marker 7-AAD on ice for 10 min in the dark. Sorting was performed on a MOFLO high-speed cell sorter (Beckman-Coulter).
(§2) 0.1×10^6 of sorted BFU-E and the CFU-E cells were cultured in 1 ml of the first phase culture media (as described before) in the absence or presence of dexamethasone (1 μM) or lenalidomide (10 nM). The cell numbers were counted every day.

For test [2], the system named is CD34−CD36+IL-3R− cells (CFU-E cells). As to the kind of experiment: Liquid culture of sorted CFU-E cells, cell numbers counted every day. Format: cell-based, human. How it is done: as §1, with “Cells were washed twice with 40 mL PBS/0.5% BSA, re-suspended in 5 mL PBS/0.5% BSA and stained with the viability marker 7-AAD on ice for 10 min in the dark. Sorting was performed on a MOFLO high-speed cell sorter (Beckman-Coulter).” left out
as §2

A further test deals with CFU-E cells. As to the kind of experiment: Flow cytometry of GPA surface expression on cultured CFU-E cells (self-renewal). Format: cell-based, human. The note with it: cultured for 6 days in the presence of lenalidomide. How it is done:
Cells taken from culture every day (day 1 to day 7) were analyzed for cell surface expression of CD34, IL-3R, CD36, CD71, CD45 and GPA using FACS canto flow cytometer (Becton Dickinson). Cultured cells (1×10^5) were suspended in PBS supplemented with 0.5% BSA and incubated with 4% human AB serum for 10 min on ice in the dark. The cells were subsequently incubated with fluorochrome-conjugated antibodies for 30 min at 4° C. and then washed once with PBS-0.5% BSA. The washed cells were then incubated for 10 min on ice in the dark with 7-AAD for identification of dead cells. All the reactions were performed under conditions of antibody saturation. Electronic compensation was done using unstained samples.
as §2
Next, the effect of lenalidomide on CFU-E cells was examined. In this population, the expression of GPA was determined since GPA becomes positive as CFU-E cells differentiate into proerythroblasts. […] These findings imply that lenalidomide promotes self-renewal of the CFU-E cells.
In general terms: A flow cytometer gives signals particle by particle.

The next test has as its system human CD34+ cells. The note with it: cited from earlier work.

Turning to `C[C@@H]1C[C@H]2[C@@H]3CCC4=CC(=O)C=C[C@]4(C)[C@@]3(F)[C@@H](O)C[C@]2(C)[C@@]1(O)C(=O)CO` [dexamethasone], the “expansion of CD34+CD36−IL-3R+ cells in the presence versus absence of dexamethasone” value in test [1] (dexamethasone 1 μM) is on record as roughly 20 fold. Besides, the “expansion of CD34+CD36−IL-3R+ cells” value in test [1] (dexamethasone 1 μM, from 0.1×10^6 cells, untreated 70-fold) amounted to 1300 fold. Moreover, the “cell number reached by CD34+CD36−IL-3R+ cells” value in test [1] (dexamethasone 1 μM, start 0.1×10^6, untreated 7×10^6) was 130×10^6. Also, in test [1] (dexamethasone 1 μM, untreated 6 days), the “duration of continued proliferation of CD34+CD36−IL-3R+ cells” value was 9 days. For the same compound, the “reduction of BFU-E cell doubling time” value in test [1] (in the presence of dexamethasone) was 33%.

As to `Nc1cccc2c1CN(C1CCC(=O)NC1=O)C2=O` (centres unmarked) [lenalidomide], the “effect on the proliferation of CD34+CD36−IL-3R+ cells” value in test [1] (lenalidomide 10 nM) is “no effect”. Also, the “response of CD34−CD36+IL-3R− cell proliferation to treatment” value in test [2] (dexamethasone 1 μM or lenalidomide 10 nM) is “enhanced the proliferation and expansion”. Also, the “increase of CD34−CD36+IL-3R− cell numbers every day” value in test [2] (lenalidomide 10 nM, doubled every 24 hours in the absence) is “tripled”. The “surface expression of GPA on CFU-E cells” value in the test on CFU-E cells is on record as “remains negative”. For the same compound, in the test with human CD34+ cells, the “effect on BFU-E colony formation” value is “not BFU-E colony” and the “effect on CFU-E colony formation” value is on record as “promotes CFU-E colony formation”.

The values above are taken from patent US20130209431A1, “ISOLATION AND CULTURE OF ERYTHROID PROGENITOR CELLS” (NEW YORK BLOOD CENTER, INC., priority 2012, published 2013).
